Test [1] deals with U2OS cells. Nature of the test: p53-responsive luciferase reporter assay. It counts as cell-based. Conditions: U2OS BP100-luc/CMV-lacZ, 30 μM, 18 h.
Test [2] in a line: Cellular functional assay. It counts as cell-based. As to conditions: data not shown.
Another test addresses MDM2 (Homo sapiens, UniProt Q00987). Nature of the test: Fluorescence polarization binding affinity. As to conditions: methyl to 4-chloro phenyl mutation.
Test [3] concerns U2OS cells. Nature of the test: Western blotting of p21, MDM2 and p53 expression. As to conditions: 30 μM, 16 h. It counts as cell-based.
The subject of a further test is HCT-116 p53+/+ cells. Put plainly: MTT assay. It counts as cell-based. Conditions: 200 μM, 48 h; for selectivity toward wild-type p53 cells versus p53-deletion cells: HCT-116 p53+/+ vs p53–/–; for suppression of proliferation of wild-type p53 cells: HCT-116 p53+/+.

MDM2, sequence (Q00987 1-150): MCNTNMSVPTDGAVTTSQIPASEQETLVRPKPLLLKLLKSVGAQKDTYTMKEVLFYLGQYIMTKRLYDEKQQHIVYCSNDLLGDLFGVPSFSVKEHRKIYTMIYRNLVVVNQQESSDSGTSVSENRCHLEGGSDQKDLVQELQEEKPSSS

As for `CC(=O)N[C@@H](CC(C)C)CN(CC(=O)N[C@@H](Cc1ccccc1)CN(CC(=O)N[C@@H](CCC(=O)O)CN(CC(=O)N[C@@H](Cc1c[nH]c2ccccc12)CN(CC(=O)N[C@@H](CCCCN)CN(CC(=O)N[C@@H](CC(C)C)CN(CC(=O)N[C@@H](C)CN(CC(N)=O)S(C)(=O)=O)S(=O)(=O)CC(C)C)S(C)(=O)=O)S(C)(=O)=O)S(C)(=O)=O)S(C)(=O)=O)S(=O)(=O)c1ccc(Cl)cc1` [PS4], the “luciferase activity compared with p53 peptide” value in the test on U2OS cells [1] is “marginally increased luciferase activity”. Besides, in test [2], the “activity in the cellular functional assay” value is “none of them is active”. Further, the “improvement of Kd” value on MDM2 is recorded as “∼fourfold improvement”.
In the case of `CC(=O)N[C@@H](CC(C)C)CN(CC(=O)N[C@@H](Cc1ccccc1)CN(CC(=O)N[C@@H](CCC(=O)O)CN1CC(=O)N[C@@H](Cc2c[nH]c3ccccc23)CN(S(C)(=O)=O)CC(=O)N[C@@H](CCCCN)CN(CC(=O)N[C@@H](CC(C)C)CN(CC(=O)N[C@@H](C)CN(CC(N)=O)S(C)(=O)=O)S(=O)(=O)CC(C)C)S(=O)(=O)CCCC/C=C\CCCCS1(=O)=O)S(C)(=O)=O)S(=O)(=O)c1ccc(Cl)cc1` [PS11], the MDM2 level result with U2OS cells [3] was “increased moderately”. Besides, the p21 level entry in the test on U2OS cells [3] (compared to control (PBS buffer)) was “increased significantly”. In the test with HCT-116 p53+/+ cells, the “selectivity toward wild-type p53 cells versus p53-deletion cells” value is “more selective toward wild-type p53 cells than p53-deletion cells” and the “suppression of proliferation of wild-type p53 cells” value was “suppress proliferation of wild-type p53 cells more efficiently than the p53 peptides”.
`CC(=O)N[C@@H](CC(C)C)CN(CC(=O)N[C@@H](Cc1ccccc1)CN(CC(=O)N[C@@H](CCC(=O)O)CN1CC(=O)N[C@@H](Cc2c[nH]c3ccccc23)CN(S(C)(=O)=O)CC(=O)N[C@@H](CCCCN)CN(CC(=O)N[C@@H](CC(C)C)CN(CC(=O)N[C@@H](C)CN(CC(N)=O)S(C)(=O)=O)S(=O)(=O)CC(C)C)S(=O)(=O)CC/C=C/CCCCS1(=O)=O)S(C)(=O)=O)S(=O)(=O)c1ccc(Cl)cc1` [PS12]: the MDM2 level result with U2OS cells [3] was “increased moderately”.
With `CC(=O)N[C@@H](CC(C)C)CN(CC(=O)N[C@@H](Cc1ccccc1)CN(CC(=O)N[C@@H](CCC(=O)O)CN(CC(=O)N[C@@H](Cc1c[nH]c2ccccc12)CN(CC(=O)N[C@@H](CCCCN)CN(CC(=O)N[C@@H](CC1CCC1)CN(CC(=O)N[C@@H](C)CN(CC(N)=O)S(C)(=O)=O)S(=O)(=O)CC(C)C)S(C)(=O)=O)S(C)(=O)=O)S(C)(=O)=O)S(C)(=O)=O)S(=O)(=O)c1ccc(Cl)cc1` [PS10], in the test with U2OS cells [1], the “luciferase activity compared with p53 peptide” value is recorded as “marginally increased luciferase activity”. In test [2], the “activity in the cellular functional assay” value is listed as “none of them is active”. Moreover, in the test on HCT-116 p53+/+ cells, the “selectivity toward wild-type p53 cells versus p53-deletion cells” value is “more selective toward wild-type p53 cells than p53-deletion cells” and the “suppression of proliferation of wild-type p53 cells” value is given as “suppress proliferation of wild-type p53 cells more efficiently than the p53 peptides”.

The values above are taken from paper PMC7025332 (Journal of Medicinal Chemistry, 2020).
